This experiment concerns the target Kappa-type opioid receptor (Cavia porcellus, UniProt P41144). Description: Compound was tested for the inhibitory concentration against opioid receptor kappa by using [3H]bremazocine as radioligand in guinea pig brain; No inhibition.

Results on one compound are retold here after ChEMBL document CHEMBL1125772, “Synthesis and receptor binding of enantiomeric N-substituted cis-N-[2-(3,4-dichlorophenyl)ethyl]-2-(1-pyrrolidinyl)cyclohexylamines as high-affinity sigma receptor ligands” (J Med Chem, 1991).

Sequence of Kappa-type opioid receptor (P41144 whole entry): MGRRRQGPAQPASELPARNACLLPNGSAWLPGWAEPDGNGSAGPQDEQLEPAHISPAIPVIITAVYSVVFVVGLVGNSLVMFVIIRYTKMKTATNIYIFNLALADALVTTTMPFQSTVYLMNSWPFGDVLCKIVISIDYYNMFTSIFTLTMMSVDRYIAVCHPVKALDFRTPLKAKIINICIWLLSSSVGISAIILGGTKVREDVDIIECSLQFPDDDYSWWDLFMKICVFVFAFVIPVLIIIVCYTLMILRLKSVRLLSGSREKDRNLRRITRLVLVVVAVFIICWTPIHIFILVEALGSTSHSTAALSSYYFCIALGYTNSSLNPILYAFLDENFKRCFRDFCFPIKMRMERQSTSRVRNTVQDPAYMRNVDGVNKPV

Turning to `Clc1ccc(CCN[C@@H]2CCCC[C@@H]2N2CCCC2)cc1Cl`, the Ki entry is “Not Active”.
